Measured values reported in PubChem BioAssay AID248 (DTP/NCI, 2004).
Where “and” joins values, the source holds several entries; their conditions need not be identical. Equal entries are not always repeated. Toxic doses and inconclusive results are not listed.

System: L1210 leukemia ip in BDF1 mice, survival T/C
Test: NCI In Vivo Anticancer Drug Screen. Data for tumor model L1210 Leukemia (intraperitoneal) in B6D2F1 (BDF1) mice
Conditions: endpoint: mean survival time, higher = longer survival
In short: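 Transplanted-tumor mice were given test agent; controls received vehicle only. Survival readings from the two groups were divided (treated over control).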

[1] = dose: 50.0 mg/kg/injection, schedule: Q01DX001 (ip), vehicle: carboxymethylcellulose (CMC)
[2] = dose: 100.0 mg/kg/injection, schedule: Q01DX001 (ip), vehicle: carboxymethylcellulose (CMC)
[3] = dose: 200.0 mg/kg/injection, schedule: Q01DX001 (ip), vehicle: carboxymethylcellulose (CMC)
[4] = dose: 400.0 mg/kg/injection, schedule: Q01DX001 (ip), vehicle: carboxymethylcellulose (CMC)
[5] = dose: 100.0 mg/kg/injection, schedule: Q01DX009 (ip), vehicle: saline with Tween-80
[6] = dose: 200.0 mg/kg/injection, schedule: Q01DX009 (ip), vehicle: saline with Tween-80
[7] = dose: 400.0 mg/kg/injection, schedule: Q01DX009 (ip), vehicle: saline with Tween-80
[8] = dose: 100.0 mg/kg/injection, schedule: Q04DX003 (ip), vehicle: saline
[9] = dose: 100.0 mg/kg/injection, schedule: Q01DX009 (ip), vehicle: saline
[10] = dose: 100.0 mg/kg/injection, schedule: Q04DX002 (ip), vehicle: saline with Tween-80
[11] = dose: 200.0 mg/kg/injection, schedule: Q04DX002 (ip), vehicle: saline with Tween-80
[12] = dose: 400.0 mg/kg/injection, schedule: Q04DX002 (ip), vehicle: saline with Tween-80

## Nc1ccc2c(c1)C1(NC(=O)NC1=O)c1cc(N)ccc1-2
[1]
  T/C: 101 % of control
[2]
  T/C: 101 % of control
[3]
  T/C: 109 % of control
[4]
  T/C: 103 % of control

## Cc1ncc(CO)c(C2NOCc3nccnc32)c1O (stereo unspecified)
dose: 3.12 mg/kg/injection, schedule: Q01DX009 (ip), vehicle: saline
  T/C: 93 % of control
dose: 6.25 mg/kg/injection, schedule: Q01DX009 (ip), vehicle: saline
  T/C: 92 % of control
dose: 12.5 mg/kg/injection, schedule: Q01DX009 (ip), vehicle: saline
  T/C: 90 % of control
dose: 12.5 mg/kg/injection, schedule: Q04DX003 (ip), vehicle: saline
  T/C: 95 % of control

## CCC(CC)C(O)CC(O)CC(C)C (stereo unspecified)
dose: 25.0 mg/kg/injection, schedule: Q04DX003 (ip), vehicle: other
  T/C: 100 % of control
dose: 50.0 mg/kg/injection, schedule: Q04DX003 (ip), vehicle: other
  T/C: 106 % of control
dose: 100.0 mg/kg/injection, schedule: Q04DX003 (ip), vehicle: other
  T/C: 101 % of control

## S=C=NCc1ccccc1
dose: 75.0 mg/kg/injection, schedule: Q01DX001 (ip), vehicle: saline
  T/C: 97 % of control
dose: 150.0 mg/kg/injection, schedule: Q01DX001 (ip), vehicle: saline
  T/C: 105 % of control

## COC(=O)c1c(Cl)c(Cl)c(C(=O)OC)c(Cl)c1Cl
[5]
  T/C: 91 % of control
dose: 100.0 mg/kg/injection, schedule: Q04DX003 (ip), vehicle: saline with Tween-80
  T/C: 90 % of control
[6]
  T/C: 92 % of control
dose: 200.0 mg/kg/injection, schedule: Q04DX003 (ip), vehicle: saline with Tween-80
  T/C: 90 % of control
[7]
  T/C: 92 % of control
dose: 400.0 mg/kg/injection, schedule: Q04DX003 (ip), vehicle: saline with Tween-80
  T/C: 95 % of control

## Cc1ccc(Cl)c(C2c3ccccc3Cc3ccc4ccccc4c32)c1 (stereo unspecified)
[1]
  T/C: 101 % of control
[2]
  T/C: 101 % of control
[3]
  T/C: 95 % of control
[4]
  T/C: 98 % of control

## CCNC(C)(C)C(SSSC(c1cccs1)C(C)(C)NCC)c1cccs1 (stereo unspecified)
dose: 25.0 mg/kg/injection, schedule: Q01DX009 (ip), vehicle: other
  T/C: 108 % of control
dose: 50.0 mg/kg/injection, schedule: Q01DX009 (ip), vehicle: other
  T/C: 103 % of control
dose: 100.0 mg/kg/injection, schedule: Q01DX009 (ip), vehicle: other
  T/C: 97 % of control
[8]
  T/C: 98 % of control

## CS(=O)(=O)OCCN(CCOS(C)(=O)=O)c1ccc(C(=O)O)cc1
dose: 42.0 mg/kg/injection, schedule: Q01DX015 (ip), vehicle: other
  T/C: 108 % of control
dose: 50.0 mg/kg/injection, schedule: Q01DX001 (ip), vehicle: other
  T/C: 115 % of control
dose: 66.0 mg/kg/injection, schedule: Q01DX015 (ip), vehicle: saline
  T/C: 120 % of control
dose: 72.0 mg/kg/injection, schedule: Q01DX015 (ip), vehicle: other
  T/C: 121 % of control
dose: 100.0 mg/kg/injection, schedule: Q01DX001 (ip), vehicle: other
  T/C: 115 % of control
dose: 100.0 mg/kg/injection, schedule: Q01DX015 (ip), vehicle: saline
  T/C: 122 % of control
dose: 120.0 mg/kg/injection, schedule: Q01DX015 (ip), vehicle: other
  T/C: 116 % of control
dose: 150.0 mg/kg/injection, schedule: Q01DX015 (ip), vehicle: saline
  T/C: 117 % of control
dose: 177.0 mg/kg/injection, schedule: Q01DX001 (ip), vehicle: other
  T/C: 118 % of control
dose: 177.0 mg/kg/injection, schedule: Q01DX001 (ip), vehicle: saline
  T/C: 117 % of control
dose: 177.0 mg/kg/injection, schedule: Q01DX015 (ip), vehicle: other
  T/C: 93 % of control
dose: 220.0 mg/kg/injection, schedule: Q01DX015 (ip), vehicle: saline
  T/C: 86 % of control
dose: 267.0 mg/kg/injection, schedule: Q01DX001 (ip), vehicle: other
  T/C: 118 % of control
dose: 267.0 mg/kg/injection, schedule: Q01DX001 (ip), vehicle: saline
  T/C: 110 % of control

## C=CCCCCCCCCC(=O)N/N=C/c1ccccc1
dose: 100.0 mg/kg/injection, schedule: Q04DX002 (ip), vehicle: Klucel (hydroxypropylcellulose) (HPC)
  T/C: 95 % of control
dose: 200.0 mg/kg/injection, schedule: Q04DX002 (ip), vehicle: Klucel (hydroxypropylcellulose) (HPC)
  T/C: 100 % of control

## Br/C=C\c1ccccc1
dose: 50.0 mg/kg/injection, schedule: Q01DX009 (ip), vehicle: acetone
  T/C: 86 % of control
[9]
  T/C: 107 % of control
[8]
  T/C: 97 % of control
dose: 200.0 mg/kg/injection, schedule: Q01DX009 (ip), vehicle: acetone
  T/C: 95 % of control
dose: 200.0 mg/kg/injection, schedule: Q04DX003 (ip), vehicle: saline
  T/C: 94 % of control
dose: 400.0 mg/kg/injection, schedule: Q04DX003 (ip), vehicle: saline
  T/C: 98 % of control

## CN(C)Cc1c[nH]c2nccnc12
dose: 25.0 mg/kg/injection, schedule: Q01DX009 (ip), vehicle: saline
  T/C: 102 % of control
dose: 25.0 mg/kg/injection, schedule: Q04DX003 (ip), vehicle: saline
  T/C: 100 % of control
dose: 50.0 mg/kg/injection, schedule: Q01DX009 (ip), vehicle: saline
  T/C: 100 % of control
dose: 50.0 mg/kg/injection, schedule: Q04DX003 (ip), vehicle: saline
  T/C: 105 % of control
[9]
  T/C: 99 % of control and 102 % of control
[8]
  T/C: 100 % of control and 104 % of control
dose: 200.0 mg/kg/injection, schedule: Q01DX009 (ip), vehicle: saline
  T/C: 99 % of control

## CC(=O)OCCc1ccc(C)cc1
[10]
  T/C: 94 % of control
[11]
  T/C: 97 % of control
[12]
  T/C: 94 % of control

## CCCCOB(/C=C/Sc1ccccc1)OCCCC
dose: 100.0 mg/kg/injection, schedule: Q01DX009 (ip), vehicle: saline sonified
  T/C: 89 % of control
dose: 100.0 mg/kg/injection, schedule: Q04DX003 (ip), vehicle: saline sonified
  T/C: 101 % of control
dose: 200.0 mg/kg/injection, schedule: Q01DX009 (ip), vehicle: saline sonified
  T/C: 87 % of control
dose: 200.0 mg/kg/injection, schedule: Q04DX003 (ip), vehicle: saline sonified
  T/C: 103 % of control
dose: 400.0 mg/kg/injection, schedule: Q01DX009 (ip), vehicle: saline sonified
  T/C: 100 % of control
dose: 400.0 mg/kg/injection, schedule: Q04DX003 (ip), vehicle: saline sonified
  T/C: 95 % of control

## O=C1CCCN1C(=O)C1CC1
dose: 100.0 mg/kg/injection, schedule: Q01DX001 (ip), vehicle: saline sonified
  T/C: 96 % of control
[5]
  T/C: 91 % of control
dose: 200.0 mg/kg/injection, schedule: Q01DX001 (ip), vehicle: saline sonified
  T/C: 109 % of control
[6]
  T/C: 87 % of control
dose: 400.0 mg/kg/injection, schedule: Q01DX001 (ip), vehicle: saline sonified
  T/C: 106 % of control
[7]
  T/C: 92 % of control

## CCOP(=S)(N1CC1(C)C)N1CC1(C)C (stereo unspecified)
dose: 12.5 mg/kg/injection, schedule: Q01DX015 (ip), vehicle: carboxymethylcellulose (CMC)
  T/C: 105 % of control
dose: 25.0 mg/kg/injection, schedule: Q01DX015 (ip), vehicle: carboxymethylcellulose (CMC)
  T/C: 105 % of control
dose: 50.0 mg/kg/injection, schedule: Q01DX015 (ip), vehicle: carboxymethylcellulose (CMC)
  T/C: 111 % of control
dose: 100.0 mg/kg/injection, schedule: Q01DX015 (ip), vehicle: carboxymethylcellulose (CMC)
  T/C: 152 % of control
dose: 200.0 mg/kg/injection, schedule: Q01DX015 (ip), vehicle: carboxymethylcellulose (CMC)
  T/C: 164 % of control

## CC1=NN(c2ccccc2)C(=O)C1N=Nc1ccc(S(=O)(=O)Nc2cc(C)nc(C)n2)cc1 (stereo unspecified)
[2]
  T/C: 98 % of control
[3]
  T/C: 98 % of control
[4]
  T/C: 95 % of control

## COc1cc(/C=N/NC(=O)c2ccccc2OC)ccc1O
dose: 100.0 mg/kg/injection, schedule: Q01DX009 (ip), vehicle: Klucel (hydroxypropylcellulose) (HPC)
  T/C: 97 % of control
dose: 200.0 mg/kg/injection, schedule: Q01DX009 (ip), vehicle: Klucel (hydroxypropylcellulose) (HPC)
  T/C: 98 % of control
dose: 400.0 mg/kg/injection, schedule: Q01DX009 (ip), vehicle: Klucel (hydroxypropylcellulose) (HPC)
  T/C: 94 % of control

## CCOc1ccccc1/C=N\NC(=O)c1cccc2ccccc12
dose: 100.0 mg/kg/injection, schedule: Q01DX001 (ip), vehicle: saline
  T/C: 95 % of control
dose: 200.0 mg/kg/injection, schedule: Q01DX001 (ip), vehicle: saline
  T/C: 95 % of control
dose: 400.0 mg/kg/injection, schedule: Q01DX001 (ip), vehicle: saline
  T/C: 90 % of control

## Nc1nc2c(c(=O)[nH]1)CP(=S)(c1ccccc1)CC2 (stereo unspecified)
[10]
  T/C: 102 % of control
[11]
  T/C: 102 % of control
[12]
  T/C: 94 % of control

## O=C1OC(c2ccccc2)(c2ccccc2)c2ccc3ccccc3c21
[5]
  T/C: 98 % of control
[6]
  T/C: 103 % of control
[7]
  T/C: 98 % of control
